Reference: a melting point compilation (Tetko et al.; mined from patent text by program, amines drawn as free bases though some values may be those of a salt)

First: Fc1ccc(C2=NOC(c3cc(Cl)cc(Cl)c3)(C(F)(F)F)C2)cc1Br (centres undefined)
Second: O=[N+]([O-])c1c(O)c(Cl)cc(F)c1-c1ncc(C(F)(F)F)cc1Cl
The melting point of the first is higher: 132 °C for the first, 67 to 72 °C for the second.

First: CSc1ccc(/C=C2/C(C)=C(C(C)N(O)C(N)=O)c3cc(F)ccc32)cc1 (centres undefined)
Second: CSc1ccc(-c2cc3ncn([C@H](C)[C@](O)(Cn4cncn4)c4ccc(F)cc4F)c(=O)c3s2)cc1
The melting point of the first is lower: 150 to 152 °C for the first, 223 to 224 °C for the second.

First: COc1cccc(Nc2ccnc(Nc3cc(OC)c(OC)c(OC)c3)n2)c1
Second: CCN(CC)Cc1[nH]c(C)c(-c2ccnc(Nc3ccc(F)cc3)n2)c1C
The melting point of the first is higher: 78 °C for the first, 71.9 to 74.2 °C for the second.

Compared with `Cc1nccn1Cc1ccc(NC(=O)C(F)(F)F)cc1C(F)(F)F`, `CC(=O)NC(Cc1c[nH]c2ccccc12)C(=O)CCc1cc(C(F)(F)F)cc(C(F)(F)F)c1` (centres undefined) is lower in melting point: 229 to 230 °C for the first, 50 to 53 °C for the second.

Compared with `O=P(O)(O)C(O)(Cc1c[nH]cn1)P(=O)(O)O`, `Nc1ccccc1CN[C@@H](CSCC(=O)O)C(=O)O` is lower in melting point: > 290 °C for the first, 214 °C for the second.

First: FC(F)(F)c1ccc(C2CNCc3[nH]c4ccccc4c32)cc1 (centres undefined)
Second: O=C(N[C@H](Cc1ccc(C(F)(F)F)o1)[C@@H](O)c1ccc(F)cc1)c1ccc(F)c2ccccc12 (racemic)
The melting point of the first is higher: 172 to 174 °C for the first, 153 to 154 °C for the second.

Compared with `NC1([C@@H]2CCN(c3ccc4c(=O)c(C(=O)O)cn(C5CC5)c4c3OC(F)F)C2)CC1`, `CCOC(=O)c1cn(C2CC2)c2cc(F)c(F)c(N(Cc3ccccc3)C(C)=O)c2c1=O` is lower in melting point: 206 to 208 °C for the first, 147 to 150 °C for the second.

First: CNc1c([N+](=O)[O-])c(Br)nn1C
Second: CNc1nnc(-c2ccccc2)c(=O)n1NC
The melting point of the first is higher: 185 °C for the first, 150 to 151 °C for the second.

Compared with `CCCC/C=C\CCCCCCCC(=O)Nc1nc(CC(=O)O)cs1`, `CCCCCCCCCCCCCCCCOc1coc(C(=O)O)cc1=O` is higher in melting point: 110 to 111 °C for the first, 126 to 130 °C for the second.

First: COP(=O)(OC)C(O)=Cc1ccccc1F
Second: CC(=O)NOC(=O)Cc1cnc2ccccc2c1O
The melting point of the first is lower: 71 to 73 °C for the first, 224 to 225 °C for the second.

Compared with `ClCCCCCOc1ccc(Br)c(CCOCc2ccccc2)c1`, `COc1ccc2c(c1)c1c3c(c(-c4ccccc4)cc1n2CCCCCCO)C(=O)NC3=O` is higher in melting point: 54 to 55 °C for the first, 170 to 173 °C for the second.

Compared with `COC(=O)c1cccc(C=C2COc3ccc(OCc4ccccc4)cc3C2=O)c1`, `O=c1oc(-c2ccc(Oc3ccccc3)cc2)cc(O)c1SCCc1ccccc1` is higher in melting point: 109 to 112 °C for the first, 127 to 128 °C for the second.

Compared with `Cc1nnc(-c2cccc(I)c2)o1`, `COc1ccc(CSc2nnc(-c3ccc4nccn4c3)o2)cc1C(F)(F)F` is higher in melting point: 104 to 105 °C for the first, 146 to 147 °C for the second.

First: CONC1=NS(=O)(=O)c2cc(Cl)ccc2N1
Second: COC(=O)c1ccc(CBr)c(CBr)c1
The melting point of the first is higher: > 220 °C for the first, 74 to 75 °C for the second.

Compared with `Cc1cc2c(c3ccc(=O)[nH]c13)O[C@@H](CN)[C@@H]2CO` (racemic), `CCCCc1c(C(=O)O)[nH]c2c(Br)cccc2c1=O` is lower in melting point: > 300 °C for the first, 220 °C for the second.

Compared with `O=C(O)COc1ccc(Nc2nccc(-c3ccncc3)n2)cc1`, `Nc1nc2ccccc2c2c1ncn2CCCCNC(=O)c1ccncc1` is lower in melting point: 308 to 310 °C for the first, 213 to 214 °C for the second.

Compared with `N#CC1(N2CCN(c3ccc(N4CC(CCC(N)=O)OC4=O)cc3F)CC2)CCOCC1` (centres undefined), `O=C1NCN(c2ccc(F)cc2)C12CCN(C1CCC(c3ccc(F)cc3)(c3ccc(F)cc3)CC1)CC2` is higher in melting point: 134 to 137 °C for the first, 237 to 240 °C for the second.

Compared with `CC(NC(=O)c1ccc(NC(=O)c2ccccc2SSc2ccccc2C(=O)Nc2ccc(C(=O)NC(C)C(=O)O)cc2)cc1)C(=O)O` (centres undefined), `O=C(Nc1cc(Cl)ccc1S(=O)(=O)c1ccc(Cl)cc1)N[C@@H](Cc1ccc(NC(=O)c2c(Cl)cccc2Cl)cc1)C(=O)O` is lower in melting point: 265 °C for the first, 239 °C for the second.

First: CC1(C)OC(=C(C#N)C#N)C(C#N)=C1/C=C/c1ccc(N)cc1
Second: N#CC(C#N)=CN(N=C(C#N)C#N)c1ccc(C#N)cc1
The melting point of the first is higher: 360 °C for the first, 231 °C for the second.

First: O=C(c1ccc([N+](=O)[O-])cc1)N1CCC[C@@H]2CCCC[C@H]21 (relative stereo)
Second: COc1ccc2ccc(NC(=O)C3CC3)nc2n1
The melting point of the first is lower: 84 to 87 °C for the first, 170 °C for the second.

First: COc1ccc2c(c1)c(C(=O)C(=O)NC1=CC(=O)OC1)cn2Cc1ccc(Cl)cc1
Second: COCCOCCn1cc(C(=O)NCc2ccc(Cl)cc2)c(=O)c2cc(CN3CC[C@@H](O)C3)ccc21
The melting point of the first is higher: 238 to 240 °C for the first, 106 to 109 °C for the second.

Compared with `CSc1c(C)cc(O)c(C(=O)Nc2ccc(S(=O)(=O)C(F)(F)F)cc2Cl)c1C`, `CCOCNC(=O)c1cc(OC)cc(Oc2cccc(C(F)(F)F)c2)n1` is lower in melting point: 201 to 202 °C for the first, 44 to 47 °C for the second.

`C#CC(C)(O)C1CCC2C3CC=C4CC(F)CCC4(C)C3CCC21C` (centres undefined) and `O=C(Cc1ccc2ccccc2n1)NC1CCC2(O)C3Cc4ccc(O)c5c4C2(CCN3CC2CC2)C1O5` (centres undefined) cannot be ordered by melting point: 213 to 214 °C for the first, 212 to 214 °C for the second.

First: CCCCCCCCCCCCCCCCOC[C@H]1CCO[C@H](c2ccccc2)O1
Second: CCCCCCCCCCCCCCCCCCSCCCCCC(N)=O
The melting point of the first is lower: 51 to 54 °C for the first, 105 °C for the second.

First: COC(c1cccs1)C1C(c2ccccc2)CC(=O)N1C (centres undefined)
Second: CC(C)(C)OC(=O)CN1C(=O)C(N2C(=O)c3ccccc3C2=O)CCc2ccccc21 (centres undefined)
The melting point of the first is lower: 101 to 102 °C for the first, 194 to 197 °C for the second.

First: CCC(CC)Oc1cc(C)nc(Oc2c(C)cc(C)cc2C)c1C
Second: Cc1ccccc1OCCCc1oc(-n2ccnc2C)nc1-c1ccc(Cl)cc1
The melting point of the first is lower: 72.5 to 74 °C for the first, 111 to 112 °C for the second.

Compared with `CC(C)CN(C)c1cc(F)cc(C(=O)Nc2ccc(OCCN3CCOCC3)c3ccccc23)c1`, `Nc1cccc(-c2ccc(CCN3CCN(C(=O)NCc4ccccc4)CC3)cc2)n1` is higher in melting point: 126 to 128 °C for the first, 172 to 175 °C for the second.

First: CC1CCCN1CCN1CCN(CCCN2CCCCC2)C1=C(C#N)C#N (centres undefined)
Second: Clc1c(OCCN2CCCCC2)ccc2cc3ccc(OCCN4CCCCC4)c(Cl)c3nc12
The melting point of the first is lower: 84 to 86 °C for the first, 173 to 174 °C for the second.

First: CC(=O)Nc1cc(C(O)CN(Cc2ccccc2)C(C)Cc2ccc(O)cc2)ccc1OCc1ccccc1 (centres undefined)
Second: CCCc1ncc(CO)c(NCc2ccc(-c3ccccc3-c3nnnn3C(c3ccccc3)(c3ccccc3)c3ccccc3)cc2)n1
The melting point of the first is higher: 141 to 143 °C for the first, 134 to 137 °C for the second.

Compared with `OCCc1c[nH]c2ccc(F)cc12`, `COC(=O)CCC(=O)c1ccc(-c2cccc(F)c2)cc1` is higher in melting point: 59 to 61 °C for the first, 99 to 101 °C for the second.

Compared with `C=CCc1c(OC)cc(OC)cc1C(=O)O`, `COC(=O)CCCCCCC(=O)c1ccc(OC)cc1` is lower in melting point: 109 to 111 °C for the first, 57 to 58 °C for the second.

First: CO[C@@H]1[C@@H](OC)[C@H](C)O[C@@H](ON=Cc2ccc(-c3cn(-c4ccc(OC(F)(F)F)cc4)cn3)cc2)[C@@H]1OC
Second: CCOC(=O)C(Cc1cccc(OCC(F)(F)C(F)F)c1)C(=O)c1ccc(F)cc1 (centres undefined)
The melting point of the first is higher: 178 °C for the first, 55 to 56 °C for the second.

Compared with `Nc1nc(Cl)c(Cl)nc1CO`, `COc1ccnc(-n2cnc3ccccc32)n1` is lower in melting point: 174 to 176 °C for the first, 114 to 116 °C for the second.

Compared with `CCCCCCC(C(=O)O)n1ccc2cc(-c3ccccc3-c3nn[nH]n3)ccc21` (centres undefined), `CN1CCn2c1nc(C(=O)NCc1ccc(F)cc1)c(O)c2=O` is higher in melting point: 105 to 115 °C for the first, 212 °C for the second.

Molecule `CN1CCCC(C2=C(C#N)C(c3cccc4nonc34)c3c[nH]nc3N2)C1` (centres undefined) has a melting point of 228 °C.
